Experimental findings from patent US9795810B2, “Propylene glycol/glycerin-based deodorant” (COLGATE-PALMOLIVE COMPANY, priority 2007, dated 2017) are described below.

The test system of this test is Corynebacterium minutissimum. Briefly: Zone of Inhibition test on inoculated agar plates. As to conditions: for Zone of Inhibition (mm): from the edge of 2 cm disk, 0.2 g stick or approx. 0.6 g neat, 37° C., 48 hrs. In kind it is cell-based. As to the method: A commercially available regular Mennen Speed Stick (MSS) deodorant stick, an Ultimate Mennen Speed Stick deodorant stick (containing triclosan as a control) and the PG-free deodorant stick containing glycerin were tested with a Zone Of Inhibition test using 2 cm Webril® (Fiberweb, Gray Court, S.C.) cotton disks on inoculated plates. Also, as controls: water, neat (undiluted) PG and neat glycerin were tested.
Zone of Inhibition Test method: To the disks was added 0.2 g of the stick products or approximately 0.6 g (enough to just saturate the disk) of the neat controls. The disks were then inverted and placed face down on an inoculated agar plate. The agar plates were streaked beforehand (30 minutes) such that a bacterial lawn of Corynebacterium minutissimum at a concentration of 10^6/ml was created covering the entire plate surface. The plates were then incubated at 37° C. for 48 hrs.
Zones of inhibition were measured in millimeters (mm) from the edge of the disk. A greater zone equals increased bacterial growth inhibition.

Regarding `CC(O)CO` (stereo not drawn) [PG neat, propylene glycol], the “Zone of Inhibition (mm)” value is given as 2.5 mm.

With `OCC(O)CO` [Glycerin neat, glycerin], the “Zone of inhibition result in words” value is “small zone” and the “Zone of Inhibition (mm)” value is 1 mm.
